Entries after “also recorded” stand apart in the source; their conditions may differ.
Columns and labels:
[1] = Sterile filtration through 0.22 μm PES syringe filter; assay type: physicochemical; details: 0.22 μm sterile filter; inferred from HEK hTLR4 activity after filtration
Experimental: (§1) GLA (Avanti Polar Lipids) was resuspended in dimethylsulfoxide (DMSO) at 1 mg/mL. GLA in DMSO was mixed with an aqueous solution of liposomes (L-GLA) or PBS (GLA alone) such that the final DMSO concentration was 2%. DMSO is miscible in aqueous solutions, and allows GLA to condense on the surface of SNAs as the organic solution is diluted. Modulation of GLA functionalized to the surface of liposomes can be achieved by adjusting the ratio of GLA to liposome. The DMSO was removed from the liposomal solution by diafiltration using tangential-flow filtration (TFF) with a hollow fiber filter (750 kDa cut-off). These liposomes which have been surface functionalized with GLA (with a loading of 50 molecules/liposome) may then be further surface modified with other molecules. L-GLA or GLA alone was then sterile filtered through a 0.22 μm PES sterile syringe filter (VWR) to remove any non-functionalized GLA or GLA aggregates.
GLA alone was prepared using the same method used to prepare L-GLA but without the presence of liposomes. Free or unbound GLA will aggregate and cannot pass through a sterile filter.

hTLR4 = biological target: T1, hTLR4 (Homo sapiens, UniProt O00206+Q9Y6Y9); assay: Experiment 4: activation of HEK hTLR4 cells pre- and post-sterile filtration, QuantiBlue; assay type: cell-based; details: post-sterile filtration through 0.22 μm PES filter; max 15 μM GLA, 1:3 serial dilution, 7 dilutions; 24 hours
T1 construct: expressed in transfected cells; host or cells: HEK huTLR4 (HEK hTLR4) cells
Experimental: FIG. 4. […] HEK hTLR4 cells were treated with 15 μM of GLA (for each compound tested) with a 1:3 serial dilution for 7 dilutions.
as §1, with “aggregates. […]” for “aggregates.”
QuantiBlue detection media was purchased from Invivogen. […] After development of color using the standard curve as a reference, the plate was read using a fluorescence plate reader (Synergy 4) at an absorbance of 650 nm.

T1 sequence (O00206 24-839): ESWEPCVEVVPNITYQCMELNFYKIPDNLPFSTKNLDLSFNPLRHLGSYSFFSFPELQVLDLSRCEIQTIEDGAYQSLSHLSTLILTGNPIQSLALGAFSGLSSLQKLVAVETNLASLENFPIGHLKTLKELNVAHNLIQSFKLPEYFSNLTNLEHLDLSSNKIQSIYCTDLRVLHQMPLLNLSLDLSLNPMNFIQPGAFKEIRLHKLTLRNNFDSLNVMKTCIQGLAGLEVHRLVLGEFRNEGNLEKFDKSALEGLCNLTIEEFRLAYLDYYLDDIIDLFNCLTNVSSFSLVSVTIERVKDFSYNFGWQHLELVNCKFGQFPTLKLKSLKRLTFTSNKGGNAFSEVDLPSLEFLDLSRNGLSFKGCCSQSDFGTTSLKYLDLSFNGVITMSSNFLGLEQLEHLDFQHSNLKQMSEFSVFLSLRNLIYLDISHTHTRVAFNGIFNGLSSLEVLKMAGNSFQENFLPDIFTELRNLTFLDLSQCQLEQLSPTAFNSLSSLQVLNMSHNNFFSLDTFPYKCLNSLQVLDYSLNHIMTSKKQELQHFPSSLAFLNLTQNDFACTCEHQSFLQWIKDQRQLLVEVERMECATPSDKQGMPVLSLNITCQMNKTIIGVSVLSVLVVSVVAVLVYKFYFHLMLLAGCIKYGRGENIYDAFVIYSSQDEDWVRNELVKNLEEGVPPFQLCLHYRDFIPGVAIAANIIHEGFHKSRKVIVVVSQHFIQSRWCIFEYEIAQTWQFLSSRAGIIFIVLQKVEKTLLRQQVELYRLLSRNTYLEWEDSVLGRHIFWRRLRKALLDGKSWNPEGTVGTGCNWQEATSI
T1 sequence (Q9Y6Y9 17-160 limits assumed): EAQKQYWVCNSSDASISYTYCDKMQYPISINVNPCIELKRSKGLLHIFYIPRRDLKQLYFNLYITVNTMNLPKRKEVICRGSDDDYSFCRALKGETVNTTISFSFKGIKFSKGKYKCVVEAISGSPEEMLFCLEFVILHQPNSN

Compound: CCCCCCCCCCCCCC(=O)O[C@H](CCCCCCCCCCC)CC(=O)N[C@H]1[C@H](OC[C@H]2O[C@H](O)[C@H](NC(=O)C[C@H](O)CCCCCCCCCCC)[C@@H](OC(=O)C[C@H](O)CCCCCCCCCCC)[C@@H]2O)O[C@H](CO)[C@@H](OP(=O)(O)O)[C@@H]1OC(=O)C[C@@H](CCCCCCCCCCC)OC(=O)CCCCCCCCCCCCC.N [GLA alone, glycopyranoside lipid A]
- passage through sterile filter [1]: removed by sterile filtration
- activation of HEK hTLR4 cells (hTLR4): failed to activate; also recorded: does not
